These results are taken from patent publication US8697725B2, “Tetrahydroquinoline derivatives and their pharmaceutical use” (GlaxoSmithKline LLC, priority 2009, dated 2014).

For this assay, the system named is TNFα. The assay is described as follows: LPS Stimulated Whole Blood Measuring TNFα Levels Assay. In kind it is cell-based. To be noted: 24 h, LPS 200 ng/ml, immunoassay, read-out: pIC50, TNFα levels in LPS stimulated whole blood (converted). How it is done: LPS Stimulated Whole Blood Measuring TNFα Levels Assay
Activation of monocytic cells by agonists of toll-like receptors such as bacterial lipopolysaccharide (LPS) results in production of key inflammatory mediators including TNFα. Such pathways are widely considered to be central to the pathophysiology of a range of auto-immune and inflammatory disorders.
Compounds to be tested are diluted to give a range of appropriate concentrations and 1 ul of the dilution stocks is added to wells of a 96 plate. Following addition of whole blood (130 ul) the plates are incubated at 37 degrees (5% CO2) for 30 min before the addition of 10 ul of 2.8 ug/ml lipopolysaccharides (LPS), diluted in complete RPMI 1640 (final concentration=200 ng/ml), to give a total volume of 140 ul per well. After further incubation for 24 hours at 37 degrees, 140 ul of PBS are added to each well. The plates are sealed, shaken for 10 minutes and then centrifuged (2500 rpm×10 min). 100 ul of the supernatant are removed and TNFα levels assayed by immunoassay (typically by MesoScale Discovery technology) either immediately or following storage at −20 degrees. Dose response curves for each compound was generated from the data and an IC50 value was calculated.

Where a name gives a salt, the structure may show the parent alone. Bounds are passed on as bounds.

In the case of `CC(=O)N1c2ccc(-c3ccc(CN4CCCCC4)cc3)cc2[C@H](N(C)C(=O)OC(C)C)C[C@@H]1C` (racemic) [Example 42, formic acid-1-methylethyl {(cis)-1-acetyl-2-methyl-6-[4-(1-piperidinylmethyl)phenyl]-1,2,3,4-tetrahydro-4-quinolinyl}methylcarbamate (1:1)], the IC50 is no more than 6.31 µM. As for `CC(=O)N1c2ccc(-c3cnc(N4CCNCC4)cn3)cc2[C@@H](NC(=O)OC(C)C)C[C@H]1C` (racemic) [Example 43, 1-methylethyl {(cis)-1-acetyl-2-methyl-6-[5-(1-piperazinyl)-2-pyrazinyl]-1,2,3,4-tetrahydro-4-quinolinyl}carbamate hydrochloride], the IC50 was no more than 6.31 µM. Turning to `CC(=O)N1c2ccc(-c3cnc(N4CCNCC4)nc3)cc2[C@@H](NC(=O)OC(C)C)C[C@H]1C` (racemic) [Example 44, 1-methylethyl {(cis)-1-acetyl-2-methyl-6-[2-(1-piperazinyl)-5-pyrimidinyl]-1,2,3,4-tetrahydro-4-quinolinyl}carbamate hydrochloride], the IC50 is no more than 6.31 µM. For `CC(=O)N1c2ccc(-c3ccc(N4CCNCC4)nn3)cc2[C@@H](NC(=O)OC(C)C)C[C@H]1C` (racemic) [Example 45, 1-methylethyl {(cis)-1-acetyl-2-methyl-6-[6-(1-piperazinyl)-3-pyridazinyl]-1,2,3,4-tetrahydro-4-quinolinyl}carbamate hydrochloride], the IC50 is no more than 6.31 µM. In the case of `CC(=O)N1c2ccc(-c3cnn(CCN4CCCCC4)c3)cc2[C@@H](NC(=O)OC(C)C)C[C@H]1C` (racemic) [Example 46, 1-methylethyl((cis)-1-acetyl-2-methyl-6-{1-[2-(1-piperidinyl)ethyl]-1H-pyrazol-4-yl}-1,2,3,4-tetrahydro-4-quinolinyl)carbamate hydrochloride], the IC50 was no more than 6.31 µM. `CC(=O)N1c2ccc(-c3ccc(N(C)C)nc3)cc2[C@@H](NC(=O)OC(C)C)C[C@H]1C` (racemic) [Example 48, 1-methylethyl {(cis)-1-acetyl-6-[6-(dimethylamino)-3-pyridinyl]-2-methyl-1,2,3,4-tetrahydro-4-quinolinyl}carbamate hydrochloride]: the IC50 was no more than 6.31 µM. The result for `CC(=O)N1c2ccc(-c3cnc(N4CCCCC4)nc3)cc2[C@@H](NC(=O)OC(C)C)C[C@H]1C` (racemic) [Example 49, 1-methylethyl {(cis)-1-acetyl-2-methyl-6-[2-(1-piperidinyl)-5-pyrimidinyl]-1,2,3,4-tetrahydro-4-quinolinyl}carbamate hydrochloride] reads no more than 6.31 µM. In the case of `CC(=O)N1c2ccc(-c3cnc(N)nc3)cc2[C@@H](NC(=O)OC(C)C)C[C@H]1C` (racemic) [Example 50, 1-methylethyl[(cis)-1-acetyl-6-(2-amino-5-pyrimidinyl)-2-methyl-1,2,3,4-tetrahydro-4-quinolinyl]carbamate hydrochloride], the IC50 is no more than 6.31 µM. On to `CC(=O)N1c2ccc(-c3cnc(N4CCOCC4)nc3)cc2[C@@H](NC(=O)OC(C)C)C[C@H]1C` (racemic) [Example 51, 1-methylethyl {(cis)-1-acetyl-2-methyl-6-[2-(4-morpholinyl)-5-pyrimidinyl]-1,2,3,4-tetrahydro-4-quinolinyl}carbamate hydrochloride], for which the IC50 is no more than 6.31 µM.

In the case of `CC(=O)N1c2ccc(-c3ncc(CN4CCCCC4)s3)cc2[C@@H](NC(=O)OC(C)C)C[C@H]1C` (racemic) [Example 52, 1-methylethyl {(cis)-1-acetyl-2-methyl-6-[5-(1-piperidinylmethyl)-1,3-thiazol-2-yl]-1,2,3,4-tetrahydro-4-quinolinyl}carbamate hydrochloride], the IC50 is no more than 6.31 µM. Take `CNc1ccc(-c2ccc3c(c2)[C@@H](NC(=O)OC(C)C)C[C@@H](C)N3C(C)=O)cn1` (racemic) [Example 53, 1-methylethyl {(cis)-1-acetyl-2-methyl-6-[6-(methylamino)-3-pyridinyl]-1,2,3,4-tetrahydro-4-quinolinyl}carbamate hydrochloride]: the IC50 is no more than 6.31 µM.

Take `CC(=O)N1c2ccc(-c3ccc(CO)cc3)cc2[C@H](NC(=O)OC(C)C)C[C@@H]1C` (relative stereo) [Example 15, 1-methylethyl {(cis)-1-acetyl-6-[4-(hydroxymethyl)phenyl]-2-methyl-1,2,3,4-tetrahydro-4-quinolinyl}carbamate]: the IC50 was no more than 6.31 µM. On to `CC(=O)N1c2ccc(-c3ccc(CN4CCCC4)cc3)cc2[C@H](NC(=O)OC(C)C)C[C@@H]1C` (relative stereo) [Example 30, 1-methylethyl {(cis)-1-acetyl-2-methyl-6-[4-(1-pyrrolidinylmethyl)phenyl]-1,2,3,4-tetrahydro-4-quinolinyl}carbamate hydrochloride], for which the IC50 is no more than 6.31 µM. Take `CC(=O)N1c2ccc(Br)cc2[C@H](NC(=O)OC(C)C)C[C@@H]1C` [Example 4, 1-methylethyl[(2S,4R)-1-acetyl-6-bromo-2-methyl-1,2,3,4-tetrahydro-4-quinolinyl]carbamate]: the IC50 was no more than 6.31 µM. For `CNCc1cccc(-c2ccc3c(c2)[C@H](NC(=O)OC(C)C)C[C@H](C)N3C(C)=O)c1` [Example 111, 1-Methylethyl((2S,4R)-1-acetyl-2-methyl-6-{3-[(methylamino)methyl]phenyl}-1,2,3,4-tetrahydro-4-quinolinyl)carbamate hydrochloride], the IC50 was no more than 6.31 µM. For `CC(=O)N1c2ccc(-c3ccc(C#N)cc3)cc2[C@H](NC(=O)OC(C)C)C[C@@H]1C` [Example 120, 1-Methylethyl[(2S,4R)-1-acetyl-6-(4-cyanophenyl)-2-methyl-1,2,3,4-tetrahydro-4-quinolinyl]carbamate] the value was no more than 6.31 µM.
